From patent publication US10975354B2, “Transdifferentiated cell populations and methods of use thereof” (ORGENESIS LTD., priority 2017, dated 2021)

Columns and labels:
[1] = test system: DsRed+ cells; test: Reprogramming of DsRed+ cells with Li followed by pTFs in the presence of HDACi; format: cell-based, human; details: combination with 10 mM Li for 48 hours; 5 mM SB or 1 μM SAHA during 2+1 TD
Description: Wnt-pathway activation was induced by supplementing cell medium with 10 mM Li for 48 hours. Subsequently, cells were transdifferentiated by pancreatic transcription factors (pTFs) in the presence of 5 mM sodium butyrate (SB) (FIG. 44A) or 1 μM suberanilohydroxamic acid (SAHA) (FIG. 44B). […] Bars show ratios of transcript levels of cells treated with HDACi and pTFs compared with cells treated with pTFs alone. Transcript levels were normalized to β-actin transcript levels. N=4 independent experiments with cells from two donors. * P-value<0.05.
Representative HDACi sodium-butyrate (SB) and suberanilohydroxamic acid (SAHA) were used to induce histone hyperacetylation, which is associated with permissive chromatin structure. Methods: Primary liver cells were incubated with 10 mM lithium (Li) for 48 hours to activate Wnt signaling. Subsequently, cells were contacted with pancreatic transcription factors according to the “2+1” transdifferentiation protocol described in Example 12 in the presence of 5 mM SB (Na-Butyrate) or 1 μM SAHA.

[2] = test system: eGFP+ cells; test: Transdifferentiation of DKK-treated eGFP+ cells in the presence of sodium butyrate; format: cell-based, human; details: DKK 3 μg/ml for 48 hours, then pTFs with 5 mM sodium butyrate
Description: Wnt-pathway activation was induced by supplementing cell medium with 10 mM Li for 48 hours. Subsequently, cells were transdifferentiated by pancreatic transcription factors (pTFs) in the presence of 5 mM sodium butyrate (SB) (FIG. 44A) or 1 μM suberanilohydroxamic acid (SAHA) (FIG. 44B). In the GFP+ cell population, a similar effect was observed when Wnt-pathway was inhibited by supplementing serum-based medium with 3 μg/ml Dickkopf (DKK) for 48 hours followed by the transdifferentiation of cells by pTFs in the presence of 5 mM sodium butyrate (SB) (FIG. 44C). Bars show ratios of transcript levels of cells treated with HDACi and pTFs compared with cells treated with pTFs alone. Transcript levels were normalized to β-actin transcript levels. N=4 independent experiments with cells from two donors. * P-value<0.05.
Similarly, SB (HDAC inhibitor) treatment alleviated the effect of Wnt signaling inhibition of eGFP+ cells (FIG. 44C).

[3] = test system: eGFP+ cells; test: Pancreatic hormones gene expression (real-time RT-PCR) in eGFP+ cells supplemented with DKK3; format: cell-based, human; details: Ad-CMV-Pdx-1, 5 days, DKK3 0.5 μg/ml
Description: Pancreatic hormones gene expression was studied by Quantitative real-time RT-PCR compared to the control-treated cells.
Total RNA was isolated and cDNA was prepared and amplified, as described previously (Ber et al, (2003) J Biol Chem 278: 31950-31957; Sapir et al, (2005) ibid). Quantitative real-time RT-PCR was performed using ABI Step one plus sequence Detection system (Applied Biosystems, CA, USA), as described previously (Sapir et al, (2005) ibid; Meivar-Levy et al, (2007) ibid; Aviv et al, (2009) J Biol Chem 284: 33509-33520).

[4] = test system: adult human liver cells; test: Glucose-regulated insulin secretion (radioimmunoassay) with Ad-CMV-Pdx-1 supplemented with Wnt3A or DKK3; format: cell-based; details: Ad-CMV-Pdx-1 and soluble factors, 5 days; 2 mM then 17.5 mM glucose
Description: Adult human liver cells were treated with Ad-CMV-Pdx-1 and soluble factors, as previously reported, supplemented with Wnt3A (50 ng/ml R&D or DKK3 (3 μg/ml R&D). After 5 days, insulin secretion was analyzed by static incubations at low followed by high glucose concentrations (2 mM and 17.5 mM glucose in KRB, respectively). Insulin secretion is measured using the human insulin radioimmunoassay kit (DPC; n≥8 from 3 different experiments) and compared to untreated cells (Cont). *p<0.01 compared to Ad-CMV-Pdx-1 alone, using Student's t-test analysis.
C-peptide and insulin secretion were measured by static incubations of primary cultures of adult liver cells 6 days after the initial exposure to the viral treatment, as described (Sapir et al, (2005) ibid; Meivar-Levy et al, (2007) ibid; Aviv et al, (2009) ibid). The glucose-regulated C-peptide secretion was measured at 2 mM and 17.5 mM glucose, which was determined by dose-dependent analyses to maximally induce insulin secretion from transdifferentiated liver cells, without having adverse effects on treated cells function (Sapir et al, (2005) ibid; Meivar-Levy et al, (2007) ibid; Aviv et al, (2009) ibid). C-peptide secretion was detected by radioimmunoassay using the human C-peptide radioimmunoassay kit (Linco Research, St. Charles, Mo.; <4% cross-reactivity to human proinsulin). […]

[5] = test system: human liver cultures; test: Glucose stimulated insulin secretion with WNT3A or DKK added during TD; format: cell-based; details: added during TD (ectopic pTFs); measured five days later
Description: FIGS. 41A-41G show active WNT signaling controls the activation of the pancreatic lineage in liver. (FIG. 41A) Efficient reprogramming of liver to pancreas relies on active WNT signaling. WNT signaling was activated by Wnt3A, or, alternatively, blocked by DKK, concomitantly to ectopic pTFs expression (TD) in human liver cultures. Glucose stimulated Insulin secretion was measured five days later. Results are average and standard error (SE) of 3-6 repeats from 3 different donors. * P-value<0.05; ** P-value<0.005; *** P-value<0.0005. […] Efficiency of reprogramming was measured by the activation of pancreatic genes expression and relative insulin secretion induced by high glucose concentrations (17.5 mM). […]
100,000 cells/well were seeded in a 6-wells plate in a low glucose DMEM media supplemented with 2 mM L-glutamine, 10% serum, antibiotics, 10 mM Nicotinamide, 20 ng/ml EGF, and 5 nM exendin4. […] After 48 hours the cells were harvested, counted, and 100,000 cells were infected with 50MOI of Ad-MafA and re-plated as above. 72 hours later the cells were analyzed for gene expression and insulin secretion, as detailed below. […]
Glucose regulated insulin secretion (FIGS. 38D and 38F, and 41A) was measured by radioimmunoassay kit (DPC, Los-Angeles, Calif.) as described previously (Berneman-Zeitouni D et al., ibid). […]

## O=C(CCCCCCC(=O)Nc1ccccc1)NO [SAHA, suberanilohydroxamic acid]
[1]
  reprogramming of DsRed+ cells (expression of PDX-1, Isl-1, Pax-4, Nkx6.1): increased reprogramming

## CCCC(=O)[O-].[Na+] [SB, sodium-butyrate]
[2]
  effect of Wnt signaling inhibition of eGFP+ cells: alleviated
[1]
  reprogramming of DsRed+ cells (expression of PDX-1, Isl-1, Pax-4, Nkx6.1): increased reprogramming

## DKK3: Dickkopf-related protein 3 (R&D), an inhibitor of the Wnt signaling pathway
[3]
  transdifferentiation capacity of eGFP cells: totally abolished
[4]
  Pdx-1-induced glucose-regulated insulin secretion: completely abolished

B1: Wnt3A: WNT3A protein (R&D), Wnt-pathway agonist (protein, UniProt P56704 19-352, looked up)
Protein Wnt-3a: SYPIWWSLAVGPQYSSLGSQPILCASIPGLVPKQLRFCRNYVEIMPSVAEGIKIGIQECQHQFRGRRWNCTTVHDSLAIFGPVLDKATRESAFVHAIASAGVAFAVTRSCAEGTAAICGCSSRHQGSPGKGWKWGGCSEDIEFGGMVSREFADARENRPDARSAMNRHNNEAGRQAIASHMHLKCKCHGLSGSCEVKTCWWSQPDFRAIGDFLKDKYDSASEMVVEKHRESRGWVETLRPRYTYFKVPTERDLVYYEASPNFCEPNPETGSFGTRDRTCNVSSHGIDGCDLLCCGRGHNARAERRREKCRCVFHWCCYVSCQECTRVYDVHTCK
[4]
  Pdx-1-induced glucose-regulated insulin secretion: increased
[5]
  glucose-regulated insulin secretion: marked increase
